The values that follow are results of earlier work, collected in US11414421B2, “Process for the preparation of ribociclib succinate and its novel crystalline forms thereof” (NATCO PHARMA LTD, priority 2018, dated 2022).

Read-outs that look alike come from different tables or passages of the source.

As to `CN(C)C(=O)c1cc2cnc(Nc3ccc(N4CCNCC4)cn3)nc2n1C1CCCC1.O=C(O)CCC(=O)O` [Ribociclib succinate, 7-cyclopentyl-N,N-dimethyl-2-{[5-(piperazin-1-yl)pyridin-2-yl]amino}-7H-pyrrolo [2,3-d]pyrimidine-6-carboxamide succinate (1/1)], the absorbs moisture result is, setting by setting: (relative humidity 0-90-0% RH) “up to 2.0%”; (second value, printed as 0-90-0% RH) “up to 0.5%”.
